Measured values: paper PMC12566971, “Polyprenylated Acylphloroglucinols from Hypericum rochelii and Hypericum olympicum—Cytotoxic Effects on Non-Tumorigenic Cell Lines and Antibacterial Potential” (Pharmaceuticals, 2025)

Experiments:
HaCaT = test: MTT assay for cytotoxicity; format: cell-based, human; settings: for IC50: Homo sapiens, HaCaT
Procedure: (§1) The MTT assay was performed according to Annex C, ISO 10993-5 [56] as in [116]. The panel of non-tumorigenic cell lines consisted of one murine (CCL-1 fibroblasts, which are recommended as a standard for cytotoxicity evaluation in Annex C of ISO 10993-5 [56]) and four human cell lines—HaCaT (immortalized epidermal keratinocytes), HGF (gingival fibroblasts), HEK-293 (embryonic cells from kidney epithelium), and HEPG2 (hepatoblastoma). Although technically a cancer cell line, HEPG2 is non-tumorigenic and retains many hepatocyte-related features in its proteome and a high degree of morphological and functional differentiation, also being a stage one hepatoblastoma.
(§2) CCL-1 was purchased from ATCC and HaCaT and HGF were bought from CLS Cell Lines Service (GmbH, Eppelheim, Germany). HEK-293 and HEPG2 were obtained from DSMZ. The cell culture medium for HaCaT and HEPG2 was Dulbecco’s Modified Eagle Medium (DMEM) with 4.5 g/L glucose (DMEM-HA). For HGF it was DMEM/F-12 (DMEM-12-A, a 1:1 mixture of DMEM and Ham’s F-12 medium). The cell medium for CCL-1 and HEK-293 was Eagle’s Minimum Essential Medium (MEM) (MEM-A). Ten percent heat-inactivated fetal bovine serum (FBS) was added to all media but to the one for the CCL-1 cells, to which 10% heat-inactivated horse serum was added. All media were supplemented with 2 mM L-glutamine and Penicillin/Streptomycin (Pen/Strep, 100×). The cell culture media, sera, and additives were from Capricorn Scientific (Düsseldorf, Germany).
(§3) GraphPad Prism software version 9 (GraphPad Software Inc., San Diego, CA, USA) was used to calculate the IC50 values from the MTT assays as in [116], as well as the MTC values, and the ELISA standard curves. The MTC values are, according to ISO 10993-5, the maximum concentration at which at least 70% of the cells are viable (nonlin fit, range).

HEPG2 = test: MTT assay for cytotoxicity; format: cell-based, human; settings: for IC50: Homo sapiens, HepG2
Procedure: as §1, §2, §3

rabbit skin = settings: in vivo
Procedure: Dermal toxicological screening of the chosen two non-toxic active substances was performed on animals. This was carried out according to the European standard ISO 10993-10: 2010 (E): Biological evaluation of medical devices, Part 10 Skin irritation and sensitization tests (6. […] The animal study protocol was approved by the opinion No. 148 of 09.04.2019 of the Ethics Committee of the Bulgarian Food Safety Agency of the Ministry of Agriculture, Food, and Forestry. The Permit to work with experimental rabbits No. 232 was valid until 11.04.2024 and issued on the basis of Article 155, paragraph 7, of the Veterinary Medical Activity Act. The albino rabbits were cared for as specified in ISO 10993-2 (withdrawn; superseded by ISO 10993-2:2022) and Ordinance No. 20 (State Gazette of Bulgaria, No. 87, 9 November 2012). Four square test sites were made on the back of the rabbit by clipping the fur. The samples were applied to 2 of them, while the other 2 were used as a positive control (10–20% SDS) and a negative control (the buffer in which the agents were diluted, i.e., PBS). The exposure time was 4 h, and at the end of it the appearance was checked for erythema (redness) and edema. Additional inspections were performed at hours 24, 48, and 72.

[1] = system: Human gingival fibroblasts (HGF); test: MTT assay for cytotoxicity; format: cell-based; settings: for IC50: Homo sapiens, Fibroblast
Procedure: as §1, §2, §3

[2] = system: Human embryonic kidney-293 (HEK-293); test: MTT assay for cytotoxicity; format: cell-based; settings: for IC50: Homo sapiens, HEK293
Procedure: as §1, §2, §3

HGF cells = test: Western blot for autophagy proteins Atg5, Atg7; format: cell-based, human; settings: MIC for S. aureus, relative to untreated control
Procedure: For Western blot, CCL-1 and HGF cell lines were chosen, and they were seeded in either 6-well plates or 55 mm Petri dishes suitable for cell culture. They were treated with an exposure time of 24 h in an incubator (Panasonic MCO-18AC, Panasonic Healthcare Ltd., […], Japan). […] Hans-Jörg Eibl. In addition, a higher concentration of an […] added to one of the tests for comparison. The samples were trypsinized, collected, washed with PBS (TS1101, HiMedia, Mumbai, India), centrifuged, and frozen at -80 °C if storage was necessary. Then they were lysed on ice with a buffer containing 100 mM Tris-HCl (648313, Sigma-Aldrich, St. Louis, MO, USA) at pH 8.0, 4% sodium dodecyl sulfate (SDS, […], Sigma-Aldrich), 20% glycerol (49779, Sigma-Aldrich), 1% Na3VO4 (450243, Sigma-Aldrich), 200 mM dithiothreitol (DTT, 3483-12-3, Sigma-Aldrich, Burlington, MA, USA) supplemented with protease inhibitor (05892970001, Roche). The cell lysate was heated to boiling for 15 min, then centrifuged at 13,000 rpm for 10 min at 4 °C. Lysates were subjected to denaturing SDS polyacrylamide gel electrophoresis on acrylamide 4-20% gradient Mini-PROTEAN® TGXTM Stain-Free gels (4568094, Bio-Rad Laboratories, Hercules, CA, USA). […] Densitometric calculation and analysis was performed with Quantity One software version 4.6.9 (Bio-Rad Laboratories).

[3] = at least 70% of cells viable, ISO 10993-5

**Q.** `CC(C)=CCCC1(C)C(CC=C(C)C)CC2C(=O)C1(C(=O)C(C)C)C(=O)C(CC=C(C)C)=C2O` (centres unmarked) [Olympiforin B] was tested. Which IC50 (HaCaT; MTT assay) did it give?
**A.** 1.71 µg/mL

**Q.** What about the IC50 (HaCaT; converted to µM) of the same molecule?
**A.** 3.65 µM

**Q.** And the “Maximum tolerated concentration (MTC), HaCaT” value (HaCaT; concentration at which at least 70% of cells are viable, ISO 10993-5)?
**A.** 0.52 µg/mL

**Q.** What about the IC50 (HEPG2; MTT assay) of the same molecule?
**A.** 4.5 µg/mL

**Q.** And the IC50 (HEPG2; converted to µM)?
**A.** 9.6 µM

**Q.** What about the “Maximum tolerated concentration (MTC), HEPG2” value (HEPG2; [3]) of the same molecule?
**A.** 1.54 µg/mL

**Q.** What about the “Skin irritation on rabbits” value (rabbit skin) of the same molecule?
**A.** do not cause skin toxicity

**Q.** What about the IC50 ([1]; MTT assay) of the same molecule?
**A.** 18 µg/mL

**Q.** And the IC50 ([1]; converted to µM)?
**A.** 38.4 µM

**Q.** And the “Maximum tolerated concentration (MTC), HGF” value [1, 3]?
**A.** 16.06 µg/mL

**Q.** What about the IC50 ([2]; MTT assay) of the same molecule?
**A.** 0.67 µg/mL

**Q.** And the IC50 ([2]; converted to µM)?
**A.** 1.43 µM

**Q.** And the “Maximum tolerated concentration (MTC), HEK-293” value [2, 3]?
**A.** 0.46 µg/mL

**Q.** And the “Increase of Atg5 and Atg7 proteins” value (HGF cells)?
**A.** 106–135%
